Test results reported in patent publication US10105357B2, “Indication of antibiotic drugs for preparation of cancer inhibition pharmaceutical composition” (LAUNX BIOMEDICAL CO., LTD., priority 2014, dated 2018).
Like-named read-outs stand apart in the source and are kept apart here.

What was measured:
Assay type in all cases: cell-based, human
[1] = system: HeLa (Cervix Adenocarcinoma); test: Cell viability analysis, cervical cancer HeLa; details: for viability at 10 µM: Homo sapiens, 72 h
[2] = system: C-33A (Cervical carcinoma); test: Cell viability analysis, cervical cancer C-33A; details: C-33A; repeated experiment
[3] = system: A375 (Amelanotic Melanoma); test: Cell viability analysis, skin cancer A375; details: for The results of antibiotic drug inhibiting cancer cell lines (cell viability analysis), A375: repeated experiment; for viability at 10 µM: Homo sapiens, A-375, 72 h
[4] = system: AGS (Gastric Adenocarcinoma); test: Cell viability analysis, gastric cancer AGS; details: for viability at 10 µM: Homo sapiens, 72 h
BxPC-3 = test: Cell viability analysis, pancreatic cancer BxPC-3; details: BxPC-3; repeated experiment
[5] = system: TSGH-8301 (Urinary Bladder Carcinoma); test: Cell viability analysis, bladder cancer TSGH-8301; details: for The results of antibiotic drug inhibiting cancer cell lines (cell viability analysis), TSGH-8301: repeated experiment; for viability at 10 µM: Homo sapiens, 72 h
[6] = system: MDA-MB-231 (Mammary Gland, Adenocarcinoma); test: Cell viability analysis, breast cancer MDA-MB-231; details: MDA-MB231; repeated experiment
[7] = system: A549 (Lung Adenocarcinoma); test: Cell viability analysis, lung cancer A549; details: for The results of antibiotic drug inhibiting cancer cell lines (cell viability analysis), A549: repeated experiment; for viability at 10 µM: Homo sapiens, A549, 72 h
[8] = system: LoVo (Colorectal Adenocarcinoma); test: Cell viability analysis, colon cancer LoVo; details: for cell viability (survival rate), LoVo: drug 10 μM, 72 hours, WST-1, OD450 nm; for viability at 10 µM: Homo sapiens, 72 h, read-out: cell viability (survival rate), LoVo, drug 10 μM, 72 hours, WST-1, OD450 nm
[9] = system: HI650 (Lung Adenocarcinoma); test: Cell viability analysis, lung cancer HI650; details: for viability at 10 µM: Homo sapiens, NCI-H1650, 72 h
NIH: OVCAR-3 = test: Cell viability analysis, ovarian cancer NIH: OVCAR-3; details: NIH-OVCAR-3; repeated experiment
[10] = system: BCC (basal cell carcinoma); test: Cell viability analysis, skin cancer BCC; details: BCC; repeated experiment
TOV-21G = test: Cell viability analysis, ovarian cancer TOV-21G; details: TOV-21G; repeated experiment
[11] = system: SAS (Tongue squamous cell carcinoma); test: Cell viability analysis, tongue cancer SAS; details: SAS; repeated experiment
[12] = system: HepG2 (Hepatocellular Carcinoma); test: Cell viability analysis, hepatic cancer HepG2; details: for viability at 10 µM: Homo sapiens, HepG2, 72 h
[13] = system: 786-O (Renal adenocarcinoma); test: Cell viability analysis, renal cancer 786-O; details: 786-O; repeated experiment
T24 = test: Cell viability analysis, bladder cancer T24; details: T24; repeated experiment
[14] = system: MCF7 (Mammary Gland, Adenocarcinoma); test: Cell viability analysis, breast cancer MCF7; details: for The results of antibiotic drug inhibiting cancer cell lines (cell viability analysis), MCF-7: repeated experiment; for viability at 10 µM: Homo sapiens, MCF7, 72 h
[15] = system: MKN-45 (Gastric Adenocarcinoma); test: Cell viability analysis, gastric cancer MKN-45; details: for The results of antibiotic drug inhibiting cancer cell lines (cell viability analysis), MKN-45: repeated experiment; for viability at 10 µM: Homo sapiens, MKN-45, 72 h
cancer cell lines = test: Cell viability analysis (WST-1) on cancer cell lines; details: drug 10 μM, 72 hours, WST-1; Table 3
U-2OS = test: Cell viability analysis, osteosarcoma U-2OS; details: U2OS; repeated experiment
[16] = system: HL-60 (Acute Promyelocytic Leukemia); test: Cell viability analysis, leukemia HL-60; details: for viability at 10 µM: Homo sapiens, HL-60, 72 h
AsPC-1 = test: Cell viability analysis, pancreatic cancer AsPC-1; details: AsPC-1; repeated experiment
[17] = system: PC3 (p53−) (Prostate Adenocarcinoma); test: Cell viability analysis, prostate cancer PC3; details: Homo sapiens, 72 h
[18] = drug 10 μM, 72 hours, WST-1, OD450 nm
[19] = HeLa, read-out: cell viability (survival rate), HeLa, drug 10 μM, 72 hours, WST-1, OD450 nm
[20] = read-out: cell viability (survival rate), A375, drug 10 μM, 72 hours, WST-1, OD450 nm
[21] = read-out: cell viability (survival rate), AGS, drug 10 μM, 72 hours, WST-1, OD450 nm
[22] = read-out: cell viability (survival rate), HL-60, drug 10 μM, 72 hours, WST-1, OD450 nm
[23] = read-out: cell viability (survival rate), TSGH, drug 10 μM, 72 hours, WST-1, OD450 nm
[24] = read-out: cell viability (survival rate), PC3, drug 10 μM, 72 hours, WST-1, OD450 nm
[25] = read-out: cell viability (survival rate), A549, drug 10 μM, 72 hours, WST-1, OD450 nm
[26] = read-out: cell viability (survival rate), H1650, drug 10 μM, 72 hours, WST-1, OD450 nm
[27] = read-out: cell viability (survival rate), HepG2, drug 10 μM, 72 hours, WST-1, OD450 nm
[28] = read-out: cell viability (survival rate), MCF7, drug 10 μM, 72 hours, WST-1, OD450 nm
[29] = read-out: cell viability (survival rate), MKN-45, drug 10 μM, 72 hours, WST-1, OD450 nm

Structure (SMILES)	cell viability (survival rate), HeLa [1, 18]	The results of antibiotic drug inhibiting cancer cell lines (cell viability analysis), A375 [3]	cell viability (survival rate), AGS [4, 18]	The results of antibiotic drug inhibiting cancer cell lines (cell viability analysis), BxPC-3 (BxPC-3)	The results of antibiotic drug inhibiting cancer cell lines (cell viability analysis), TSGH-8301 [5]	cell viability (survival rate), TSGH [5, 18]	The results of antibiotic drug inhibiting cancer cell lines (cell viability analysis), MDA-MB231 [6]	inhibition effect on different cancer cell lines (cancer cell lines)	viability at 10 µM [1, 19] [%]	viability at 10 µM [3, 20] [%]	viability at 10 µM [4, 21] [%]	viability at 10 µM [16, 22] [%]	viability at 10 µM [5, 23] [%]	viability at 10 µM [17, 24] [%]	viability at 10 µM [7, 25] [%]	viability at 10 µM ([8]; LoVo) [%]	viability at 10 µM [9, 26] [%]	viability at 10 µM [12, 27] [%]	viability at 10 µM [14, 28] [%]	viability at 10 µM [15, 29] [%]	further results
CCCCCCCCCCCCCCCC[N+](C)(C)C.[Br-] [Cetrimonium Bromide]	42.6	12.93	42.4	25.89	22.33	34.8	33.73	significant inhibition effect	–	–	–	–	–	–	–	–	–	–	–	–	The results of antibiotic drug inhibiting cancer cell lines (cell viability analysis), HeLa ([1]; HeLa, repeated experiment): 20.73; The results of antibiotic drug inhibiting cancer cell lines (cell viability analysis), C-33A [2]: 35.29; The results of antibiotic drug inhibiting cancer cell lines (cell viability analysis), AGS ([4]; AGS, repeated experiment): 20.83; The results of antibiotic drug inhibiting cancer cell lines (cell viability analysis), A549 [7]: 20.71; cell viability (survival rate), A549 [7, 18]: 25.0; The results of antibiotic drug inhibiting cancer cell lines (cell viability analysis), LoVo ([8]; LoVo, repeated experiment): 51.72; cell viability (survival rate), LoVo [8]: 55.4; cell viability (survival rate), H1650 [9, 18]: 54.6; The results of antibiotic drug inhibiting cancer cell lines (cell viability analysis), NIH-OVCAR-3 (NIH: OVCAR-3): 56.47; The results of antibiotic drug inhibiting cancer cell lines (cell viability analysis), BCC [10]: 23.59; The results of antibiotic drug inhibiting cancer cell lines (cell viability analysis), TOV-21G (TOV-21G): 15.69; The results of antibiotic drug inhibiting cancer cell lines (cell viability analysis), SAS [11]: 21.73; The results of antibiotic drug inhibiting cancer cell lines (cell viability analysis), HepG2 ([12]; HepG2, repeated experiment): 56.6; The results of antibiotic drug inhibiting cancer cell lines (cell viability analysis), 786-O [13]: 16.85; The results of antibiotic drug inhibiting cancer cell lines (cell viability analysis), T24 (T24): 19.1; The results of antibiotic drug inhibiting cancer cell lines (cell viability analysis), MCF-7 [14]: 47.47; The results of antibiotic drug inhibiting cancer cell lines (cell viability analysis), MKN-45 [15]: 35.25
C[C@@H]1[C@H](O)[C@@H](C)/C=C/C=C/CC/C=C/C=C/C=C/C=C/C(O[C@H]2O[C@H](C)[C@@H](O)[C@H](N)[C@@H]2O)CC2O[C@](O)(CC(O)C(O)CCC(O)CC(O)CC(O)CC(=O)O[C@H]1C)CC(O)C2C(=O)O (stereo partly shown) [Nystatin (Mycostatin), Nystatin]	59.2	99.37	50.8	69.94	91.24	42.1	86.09	significant inhibition effect	–	–	–	–	–	–	–	–	–	–	–	–	cell viability (survival rate), A375 [3, 18]: 62.4; The results of antibiotic drug inhibiting cancer cell lines (cell viability analysis), U2OS (U-2OS): 76.11; cell viability (survival rate), HL-60 [16, 18]: 96.2; The results of antibiotic drug inhibiting cancer cell lines (cell viability analysis), AsPC-1 (AsPC-1): 75.83; The results of antibiotic drug inhibiting cancer cell lines (cell viability analysis), A549 [7]: 94.3; cell viability (survival rate), A549 [7, 18]: 37.1; cell viability (survival rate), LoVo [8]: 70.9; The results of antibiotic drug inhibiting cancer cell lines (cell viability analysis), H1650 ([9]; H1650, repeated experiment): 72.42; cell viability (survival rate), H1650 [9, 18]: 65.4; The results of antibiotic drug inhibiting cancer cell lines (cell viability analysis), BCC [10]: 92.4; The results of antibiotic drug inhibiting cancer cell lines (cell viability analysis), TOV-21G (TOV-21G): 74.99; The results of antibiotic drug inhibiting cancer cell lines (cell viability analysis), SAS [11]: 97.09; The results of antibiotic drug inhibiting cancer cell lines (cell viability analysis), 786-O [13]: 89.48; The results of antibiotic drug inhibiting cancer cell lines (cell viability analysis), T24 (T24): 76.44; The results of antibiotic drug inhibiting cancer cell lines (cell viability analysis), MCF-7 [14]: 89.88; cell viability (survival rate), MCF7 [14, 18]: 46.4; The results of antibiotic drug inhibiting cancer cell lines (cell viability analysis), MKN-45 [15]: 95.89; cell viability (survival rate), MKN-45 [15, 18]: 44.7
COc1ccc2c(c1)c(CC(=O)OCC(=O)O)c(C)n2C(=O)c1ccc(Cl)cc1 [Acemetacin (Emflex), Acemetacin]	–	–	–	–	–	–	–	significant inhibition effect	70.9	68.4	69	120	99.4	90.5	88.1	94.7	78.2	110	87.3	103	–
Cc1cn([C@@H]2C[C@@H](O)[C@H](CO)O2)c(=O)[nH]c1=O [Telbivudine (Sebivo, Tyzeka), Telbivudine]	–	–	–	–	–	–	–	significant inhibition effect	51.9	57.5	27.5	100	50.4	53.6	43.7	65.3	67.5	94.4	31.9	36.2	–
COc1c(N2CCNC(C)C2)c(F)cc2c(=O)c(C(=O)O)cn(C3CC3)c12 (stereo not shown) [Gatifloxacin]	–	–	–	–	–	–	–	significant inhibition effect	–	–	–	–	–	–	–	98.3	–	–	–	–	viability at 10 µM ([1]; HeLa, drug 10 μM, 72 hours, WST-1, OD450 nm, read-out: cell viability (survival rate), HeLa): 84.1%; viability at 10 µM ([3]; drug 10 μM, 72 hours, WST-1, OD450 nm, read-out: cell viability (survival rate), A375): 63.3%; viability at 10 µM ([4]; drug 10 μM, 72 hours, WST-1, OD450 nm, read-out: cell viability (survival rate), AGS): 71.4%; viability at 10 µM ([16]; drug 10 μM, 72 hours, WST-1, OD450 nm, read-out: cell viability (survival rate), HL-60): 100%; viability at 10 µM ([5]; drug 10 μM, 72 hours, WST-1, OD450 nm, read-out: cell viability (survival rate), TSGH): 65%; viability at 10 µM ([17]; drug 10 μM, 72 hours, WST-1, OD450 nm, read-out: cell viability (survival rate), PC3): 82.2%; viability at 10 µM ([7]; drug 10 μM, 72 hours, WST-1, OD450 nm, read-out: cell viability (survival rate), A549): 96%; viability at 10 µM ([9]; drug 10 μM, 72 hours, WST-1, OD450 nm, read-out: cell viability (survival rate), H1650): 47.2%; viability at 10 µM ([12]; drug 10 μM, 72 hours, WST-1, OD450 nm, read-out: cell viability (survival rate), HepG2): 65.6%; viability at 10 µM ([14]; drug 10 μM, 72 hours, WST-1, OD450 nm, read-out: cell viability (survival rate), MCF7): 130%; viability at 10 µM ([15]; drug 10 μM, 72 hours, WST-1, OD450 nm, read-out: cell viability (survival rate), MKN-45): 84.2%
CN1CCN(c2c(F)cc3c(=O)c(C(=O)O)cn4c3c2OCN4C)CC1 [Marbofloxacin]	–	–	–	–	–	–	–	significant inhibition effect	88.2	86.8	81.2	105	91.6	78.4	83.8	108	80.3	95.6	92.3	112	–
